According to patent US11325899B2, “Benzofurane and benzothiophene derivatives as PGE2 receptor modulators” (IDORSIA PHARMACEUTICALS LTD, priority 2017, dated 2022):

Experiments:
PTGER2 (EP2) = target: T1, PTGER2 (EP2) (Homo sapiens, UniProt P43116); experiment: hEP2 b-arrestin assay (PathHunter HEK 293 PTGER2 b-arrestin cells); type: cell-based; conditions: antagonistic activity, beta-arrestin assay; read-out: hEP2 b-arr IC50
T1 construct: host or cells: HEK 293 (PathHunter PTGER2 b-arrestin cell line)
How it was run: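 Antagonism measured as inhibition of PGE2-driven β-arrestin 2 recruitment (enzyme fragment complementation, luminescence) in engineered HEK293 EP2 cells. Agonist: 5 μM PGE2, ~EC80, 120 min at 37 °C after 15 min compound preincubation; test range 10 μM-2 nM or 1 μM-0.2 nM, duplicates, IC50 fitted.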

EP2 receptor = target: T2, EP2 receptor (Homo sapiens, UniProt P43116); experiment: hEP2 cAMP assay (SF295 glioblastoma cells, HTRF cAMP, PGE2 stimulation); type: cell-based; conditions: antagonistic activity
T2 construct: SF295 glioblastoma cells express high endogenous EP2 and no EP4; host or cells: SF295 glioblastoma cells
How it was run: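 HTRF cAMP readout gave % cAMP relative to DMSO, fitted to IC50 with duplicate points. Compounds were preincubated 45 min at room temperature with EP2-expressing, EP4-negative SF295 cells in IBMX (2 mM)-containing buffer before a 30 min challenge with PGE2 at 75 nM final, its EC80.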

T2 sequence (P43116 whole entry): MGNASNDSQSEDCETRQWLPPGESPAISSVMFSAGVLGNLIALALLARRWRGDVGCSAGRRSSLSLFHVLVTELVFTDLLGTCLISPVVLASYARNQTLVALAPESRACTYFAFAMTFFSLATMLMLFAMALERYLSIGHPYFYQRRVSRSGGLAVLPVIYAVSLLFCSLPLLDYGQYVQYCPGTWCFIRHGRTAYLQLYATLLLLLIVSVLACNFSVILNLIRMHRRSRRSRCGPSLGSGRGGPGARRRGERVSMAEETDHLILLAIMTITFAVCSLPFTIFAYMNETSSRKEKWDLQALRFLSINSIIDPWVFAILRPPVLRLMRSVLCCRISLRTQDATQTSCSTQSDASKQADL
T1 sequence (P43116 whole entry): as above

Row | IC50 (PTGER2 (EP2)) [nM] | IC50 (EP2 receptor) [nM] | Compound
1 | 37 | 80 | CCOc1cc(-c2cc(NCCc3c(C)oc4c(OC)cc(Cl)cc34)ncn2)ccc1C(=O)O [Example 70, 4-{6-[2-(5-Chloro-7-methoxy-2-methyl-benzofuran-3-yl)-ethylamino]-pyrimidin-4-yl}-2-ethoxy-benzoic acid]
2 | 7 | 10 | CCOc1cc(-c2cc(NCCc3c(C)oc4c(Cl)cc(Cl)cc34)ncn2)ccc1C(=O)O [Example 71, 4-{6-[2-(5,7-Dichloro-2-methyl-benzofuran-3-yl)-ethylamino]-pyrimidin-4-yl}-2-ethoxy-benzoic acid]
3 | 3 | 8 | CCOc1cc(-c2cc(NCCc3c(C)sc4ccccc34)ncn2)ccc1C(=O)O [Example 72, 2-Ethoxy-4-{6-[2-(2-methyl-benzo[b]thiophen-3-yl)-ethylamino]-pyrimidin-4-yl}-benzoic acid]
4 | 8 | 9 | CCOc1cc(-c2cc(NCCc3c(Cl)sc4ccccc34)ncn2)ccc1C(=O)O [Example 75, 4-{6-[2-(2-chloro-benzo[b]thiophen-3-yl)-ethylamino]-pyrimidin-4-yl}-2-ethoxy-benzoic acid]
5 | 10 | 39 | Cc1sc2c(C)cccc2c1CCNc1cc(-c2ccc3c(C(=O)O)coc3c2)ncn1 [Example 76, 6-{6-[2-(2,7-Dimethyl-benzo[b]thiophen-3-yl)-ethylamino]-pyrimidin-4-yl}-benzofuran-3-carboxylic acid]
6 | 6 | 8 | Cc1sc2c(C)cccc2c1CCNc1cc(-c2ccc3cc(C(=O)O)oc3c2)ncn1 [Example 77, 6-{6-[2-(2,7-Dimethyl-benzo[b]thiophen-3-yl)-ethylamino]-pyrimidin-4-yl}-benzofuran-2-carboxylic acid]
7 | 26 | 106 | Cc1sc2c(C)cc(F)cc2c1CCNc1cc(-c2ccc(-c3nc(=O)[nH]o3)cc2)ncn1 [Example 79, 5-(4-{6-[2-(5-Fluoro-2,7-dimethyl-benzo[b]thiophen-3-yl)-ethylamino]-pyrimidin-4-yl}-phenyl)-[1,2,4]oxadiazol-3(2H)-one [tautomeric form: 5-(4-(6-((2-(5-fluoro-2,7-dimethylbenzo[b]thiophen-3-yl)ethyl)amino)pyrimidin-4-yl)phenyl)-[1,2,4]oxadiazol-3-ol]]
8 | 13 | 21 | Cc1sc2c(C)cc(F)cc2c1CCNc1cc(-c2cc3c(C(=O)O)cccc3[nH]2)ncn1 [Example 82, 2-{6-[2-(5-Fluoro-2,7-dimethyl-benzo[b]thiophen-3-yl)-ethylamino]-pyrimidin-4-yl}-1H-indole-4-carboxylic acid]
9 | 22 | 44 | COc1cc(Cl)cc2c(CCNc3cc(-c4ccc(C(=O)O)c(OC5CC5)c4)ncn3)c(C)oc12 [Example 83, 4-{6-[2-(5-Chloro-7-methoxy-2-methyl-benzofuran-3-yl)-ethylamino]-pyrimidin-4-yl}-2-cyclopropoxy-benzoic acid]
10 | 21 | 21 | COc1ccc(F)c2c(CCNc3cc(-c4ccc(C(=O)O)c(OC5CC5)c4)ncn3)c(C)sc12 [Example 84, 2-Cyclopropoxy-4-{6-[2-(4-fluoro-7-methoxy-2-methyl-benzo[b]thiophen-3-yl)-ethylamino]-pyrimidin-4-yl}-benzoic acid]
11 | 68 | 49 | COc1cc(F)c(F)c2c(CCNc3cc(-c4ccc(C(=O)O)c(OC5CC5)c4)ncn3)c(C)oc12 [Example 85, 2-Cyclopropoxy-4-{6-[2-(4,5-difluoro-7-methoxy-2-methyl-benzofuran-3-yl)-ethylamino]-pyrimidin-4-yl}-benzoic acid]
12 | 19 | 11 | Cc1sc2c(C)cc(F)cc2c1CCNc1cc(-c2ccc(C(=O)O)c(OCCO)c2)ncn1 [Example 86, 4-{6-[2-(5-fluoro-2,7-dimethyl-benzo[b]thiophen-3-yl)-ethylamino]-pyrimidin-4-yl}-2-(2-hydroxy-ethoxy)-benzoic acid]
13 | 5 | 15 | CCCSc1cc(-c2cc(NCCc3c(C)sc4c(C)cccc34)ncn2)ccc1C(=O)O [Example 87, 4-{6-[2-(2,7-Dimethyl-benzo[b]thiophen-3-yl)-ethylamino]-pyrimidin-4-yl}-2-propylsulfanyl-benzoic acid]
14 | 21 | 11 | CCCSc1cc(-c2cc(NCCc3c(C)sc4ccccc34)ncn2)ccc1C(=O)O [Example 88, 4-{6-[2-(2-Methyl-benzo[b]thiophen-3-yl)-ethylamino]-pyrimidin-4-yl}-2-propylsulfanyl-benzoic acid]
15 | 10 | 5 | CCCSc1cc(-c2cc(NCCc3c(C)oc4ccccc34)ncn2)ccc1C(=O)O [Example 89, 4-{6-[2-(2-Methyl-benzofuran-3-yl)-ethylamino]-pyrimidin-4-yl}-2-propylsulfanyl-benzoic acid]
16 | 11 | 35 | Cc1sc2c(C)cccc2c1CCNc1cc(-c2ccc(C(=O)O)c(SC(C)C)c2)ncn1 [Example 90, 4-{6-[2-(2,7-Dimethyl-benzo[b]thiophen-3-yl)-ethylamino]-pyrimidin-4-yl}-2-isopropylsulfanyl-benzoic acid]
17 | 20 | 10 | Cc1sc2ccccc2c1CCNc1cc(-c2ccc(C(=O)O)c(SC(C)C)c2)ncn1 [Example 91, 2-Isopropylsulfanyl-4-{6-[2-(2-methyl-benzo[b]thiophen-3-yl)-ethylamino]-pyrimidin-4-yl}-benzoic acid]
18 | 6 | 6 | Cc1oc2ccccc2c1CCNc1cc(-c2ccc(C(=O)O)c(SC(C)C)c2)ncn1 [Example 92, 2-Isopropylsulfanyl-4-{6-[2-(2-methyl-benzofuran-3-yl)-ethylamino]-pyrimidin-4-yl}-benzoic acid]
19 | 47 | 326 | CCc1cc(-c2cc(NCCc3c(C)sc4c(C)cc(F)cc34)ncn2)cc(C)c1CC(=O)O [Example 194, (2-Ethyl-4-{6-[2-(5-fluoro-2,7-dimethyl-benzo[b]thiophen-3-yl)-ethylamino]-pyrimidin-4-yl}-6-methyl-phenyl)-acetic acid]
20 | 4 | 6 | Cc1sc2c(C)cc(F)cc2c1CCNc1cc(-c2ccc(C(=O)O)c(OC3CC3)c2)ncn1 [Example 195, 2-Cyclopropoxy-4-{6-[2-(5-fluoro-2,7-dimethyl-benzo[b]thiophen-3-yl)-ethylamino]-pyrimidin-4-yl}-benzoic acid]
21 | 16 | 50 | Cc1sc2c(C)cc(F)cc2c1CCNc1cc(-c2ccc(CC(=O)O)c(OC3CC3)c2)ncn1 [Example 196, (2-Cyclopropoxy-4-{6-[2-(5-fluoro-2,7-dimethyl-benzo[b]thiophen-3-yl)-ethylamino]-pyrimidin-4-yl}-phenyl)-acetic acid]
22 | 17 | 75 | CCOc1cc(-c2cc(NCCc3c(C)sc4c(C)cc(F)cc34)ncn2)ccc1-c1cc(O)no1 [Example 202, 5-(2-Ethoxy-4-{6-[2-(5-fluoro-2,7-dimethyl-benzo[b]thiophen-3-yl)-ethylamino]-pyrimidin-4-yl}-phenyl)-isoxazol-3-ol [tautomeric form: 5-(2-ethoxy-4-(6-((2-(5-fluoro-2,7-dimethylbenzo[b]thiophen-3-yl)ethyl)amino)pyrimidin-4-yl)phenyl)isoxazol-3(2H)-one]]
